One data set concerns Alternaria solani. Description: Activity against early blight of tomato caused by Alternaria solani, protective use. Format: in vivo. The settings on record: 250 ppm spray, tomato cultivar Large Fruited St. Pierre, visual rating after 5 days, untreated 80%. The method, then: (§1) For use examples 1 and 2, the active compounds were formulated as a stock solution 15 with 0.25% by weight of active compound in acetone or dimethyl sulfoxide (DMSO). 1% by weight of the emulsifier Uniperol® EL (wetting agent having emulsifying and dispersant action based on ethoxylated alkylphenols) was added to this solution, and the mixture was diluted with water to the desired concentration.
Activity Against Early Blight of Tomato Caused by Alternaria solani, Protective Use
Leaves of potted plants of the tomato cultivar “Large Fruited St. Pierre” were sprayed to runoff point with an aqueous suspension having the concentration of active compound stated below. The next day, the leaves were infected with an aqueous spore suspension of Alternaria solani in a 2% biomalt solution having a density of 0.17×10^6 spores/ml. The plants were then placed in a water-vapor-saturated chamber at 20-22° C. After 5 days, the blight on the untreated but infected control plants had developed to such an extent that the infection could be determined visually in %.

The subject of data set [1] is Erysiphe [syn. Blumeria] graminis forma specialis tritici. Description: Activity against mildew of wheat caused by Erysiphe [syn. Blumeria] graminis forma specialis tritici, protective use. It is filed as in vivo. The following applies: 250 ppm spray, wheat seedlings cultivar Newton, visual rating after 7 days, % of entire leaf area, untreated 90%. The method, then:
Activity Against Mildew of Wheat Caused by Erysiphe [syn. Blumeria] graminis form a Specialis tritici, Protective Use
Leaves of wheat seedlings, grown in pots, of the cultivar “Newton” were sprayed to runoff point with an aqueous suspension having the concentration of active compound stated below. The suspension or emulsion was prepared from a stock solution comprising 5% of active compound, 94% of cyclohexanone and 1% of emulsifier (Tween 20) by dilution with water. 3-5 hours after the spray coating had dried on, the […] of wheat (Erysiphe [syn. Blumeria] graminis form a specialis. tritici). The test plants were then placed in a greenhouse at 20-24° C. and 60-90% relative atmospheric humidity. After 7 days, the extent of the mildew development was determined visually in % infection of the entire leaf area.

The next data set has as its system Plasmopara viticola. Description: Activity against Peronospora of grapevines caused by Plasmopara viticola, protective use. It is filed as in vivo. The settings on record: 250 ppm spray, grapevine cultivar Müller-Thurgau, visual rating of leaf undersides, untreated 90%. The method, then:
as §1
Activity against Peronospora of Grapevines caused by Plasmopara viticola, Protective Use
Leaves of potted grapevines of the cultivar “Müller-Thurgau” were sprayed to runoff point with an aqueous suspension having the concentration of active compound stated below. The next day, the undersides of the leaves were inoculated with an aqueous zoospore suspension of Plasmopara viticola. The grapevines were then initially placed in a water-vapor-saturated chamber at 24° C. for 48 hours and then in a greenhouse at 20-30° C. for 5 days. After this period of time, the plants were again placed in a humid chamber for 16 hours to promote sporangiophore eruption. The extent of the development of the infection on the undersides of the leaves was then determined visually.

The results in this text go back to US20060199801A1, “Heterobicyclic compounds used as fungicides” (priority 2003, published 2006).

With `CCC(C)C(C)c1c(-c2ccc(F)cc2C)c(C)nn2cnnc12` (mixture of isomers) [Example 16], the “Infection [%] at 250 ppm” value in the data set on Alternaria solani is recorded as 20%.

Turning to `CCCC(C)c1c(-c2ccc(F)cc2C)c(C)nn2cnnc12` (racemic) [Example 13], the “Infection [%] at 250 ppm” value in the data set with Alternaria solani worked out at 10%.

Regarding `CCCC(C)c1c(-c2ccc(C)cc2C)c(C)nn2cnnc12` (racemic) [Example 14], in data set [1], the “Infection [%] at 250 ppm” value stood at 20%.

For `CCCC(C)c1c(-c2ccc(F)cc2F)c(C)nn2cnnc12` (single isomer, unassigned) [Example 18], the figures for the “Infection [%] at 250 ppm” value (in the data set with Plasmopara viticola; in data set [1]) were 10% and 7%, respectively.

Turning to `CCCC(C)c1c(-c2ccc(C)cc2F)c(C)nn2cnnc12` (single isomer, unassigned) [Example 19], the “Infection [%] at 250 ppm” value in data set [1] stood at 20%.

Regarding `CCC(C)C(C)c1c(-c2ccc(C)cc2F)c(C)nn2cnnc12` (single isomer, unassigned) [Example 20], in data set [1], the “Infection [%] at 250 ppm” value amounted to 5%.

As to `CCCC(C)c1c(-c2ccc(F)cc2F)c(C)nn2cnnc12` (single isomer, unassigned) [Example 21], the “Infection [%] at 250 ppm” value (in the data set on Plasmopara viticola; in data set [1]) was 3% in each case.

Regarding `CCC(C)C(C)c1c(-c2ccc(C)cc2F)c(C)nn2cnnc12` (single isomer, unassigned) [Example 22], the “Infection [%] at 250 ppm” value in data set [1] came out at 7%.

Regarding `Cc1nn2cnnc2c(CC(C)C)c1-c1ccccc1` [Example 1, 7-Phenyl-8-isobutyl-6-methyl-[1,2,4]triazolo[4,3-b]pyridazine], the “Infection [%] at 250 ppm” value was 10% with Alternaria solani and 20% in the data set with Plasmopara viticola.

Consider `Cc1cc(F)ccc1-c1c(C)nn2cnnc2c1CC(C)C` [Example 2], for which the results for the “Infection [%] at 250 ppm” value in the data set on Alternaria solani and in the data set with Plasmopara viticola were 15% and 0%, respectively.

Take `CCCCc1c(-c2ccc(F)cc2C)c(C)nn2cnnc12` [Example 3]: the “Infection [%] at 250 ppm” value in the data set with Alternaria solani came out at 25%; in the data set on Plasmopara viticola it was 0%.

Turning to `CCCCc1c(-c2ccc(F)cc2F)c(C)nn2cnnc12` [Example 4], the “Infection [%] at 250 ppm” value with Alternaria solani is listed as 10%; in the data set with Plasmopara viticola, 0%.

`CCCCc1c(-c2ccc(C)cc2F)c(C)nn2cnnc12` [Example 5]: the “Infection [%] at 250 ppm” value with Plasmopara viticola was 0%.

Turning to `Cc1nn2cnnc2c(CC(C)C)c1-c1ccc(F)cc1F` [Example 6], the “Infection [%] at 250 ppm” value in the data set on Plasmopara viticola is 0%.

For the molecule `Cc1ccc(-c2c(C)nn3cnnc3c2CC(C)C)c(F)c1` [Example 7], in the data set on Alternaria solani, the “Infection [%] at 250 ppm” value is 20%.

Regarding `Cc1nn2cnnc2c(C2CCCCC2)c1-c1ccc(F)cc1F` [Example 8], the “Infection [%] at 250 ppm” value in the data set on Alternaria solani and in the data set with Plasmopara viticola was 0% each time.

Consider `Cc1ccc(-c2c(C)nn3cnnc3c2C2CCCCC2)c(C)c1` [Example 9], for which, in the data set on Plasmopara viticola, the “Infection [%] at 250 ppm” value is on record as 20%.

As for `Cc1cc(F)ccc1-c1c(C)nn2cnnc2c1C1CCCCC1` [Example 10], in the data set with Plasmopara viticola, the “Infection [%] at 250 ppm” value worked out at 0%.

Consider `Cc1nn2cnnc2c(CCC(C)(C)C)c1-c1ccc(F)cc1F` [Example 11], for which the “Infection [%] at 250 ppm” value is 20% in the data set with Alternaria solani and 0% with Plasmopara viticola.

For the molecule `Cc1ccc(-c2c(C)nn3cnnc3c2CCC(C)(C)C)c(F)c1` [Example 12], the “Infection [%] at 250 ppm” value in the data set with Alternaria solani and with Plasmopara viticola was 3% throughout.

Take `Cc1ccc(-c2c(C)nn3cnnc3c2CCC(C)(C)C)c(C)c1` [Example 15]: the “Infection [%] at 250 ppm” value with Plasmopara viticola stood at 3%; in data set [1], 20%.

As for `CC1CCN(c2c(-c3c(F)cccc3Cl)c(Cl)nc3nnnn23)CC1` [Example 23, 5-Chloro-6-(2-chloro-6-fluorophenyl)-7-(4-methylpiperidin-1-yl)-tetrazolo[1,5-a]pyrimidine], the “Infection [%] at 250 ppm” value in data set [1] came out at 15%.

For the molecule `Cc1nc2c(C#N)ncn2c(N[C@H](C)C(C)C)c1-c1c(F)cc(F)cc1F` [Example 36], in the data set with Alternaria solani, the “Infection [%] at 250 ppm” value was 7%.

Regarding `Cc1nn2ncnc2c(CC(C)C)c1-c1ccc(F)cc1F` [Example 38, 7-(2,4-Difluorophenyl)-8-isobutyl-6-methyl-[1,2,4]triazolo[1,5-b]pyridazine], the melting point is 103 to 105 °C.

Broadly, the melting point is the temperature of the solid-liquid transition.
